We go through 5 molecules from patent US7811599B2, “Pharmaceutical combinations comprising a fungicide, a bacteriostatic sulphonamide and an antibacterial compound for topical application” (priority 2001, dated 2010).

Converted amounts (≈) assume the structure as drawn.

The term MIC denotes the smallest concentration in the dilution series that meets the test's criterion for growth inhibition.

Type in all cases: cell-based
One assay deals with Escherichia coli. Briefly: MIC values of active ingredients (in nutrient liquid). The following applies: Table I. Here is the method: (§1) The experiments are carried out in an ambience free of germs. […] The following compounds were tested: azithromycin, clarithromycin, erythromycin, miconazole, […]-sulphate. Test organisms: Bacteria: Escherichia coli, Pseudomonas aeruginosa, Serratia marcescens, Staphylococcus aureus, Streprococcus pyogenes. Fungi: Aspergillus flavus, Fusarium oxysporum, Candida albicans, Candida parapsilosus. Nutrient media: Soye bouillon, Sabouraud nutrient liquor. Solvents: methanol a.r. and for […]-sulphate the mixture of butanol:ethanol:water in the ratio of 1:1:2. Negative control: nutrient medium exempt of test organisms. Positive control: nutrient medium and 10 μL of the inoculum. Following preparation of the inoculum and incubation the MIC values were determined according to the above.

Another assay deals with Staphylococcus aureus. The description is as above. The following applies: Table I. Here is the method: as §1
The subject of a further assay is Streptococcus pyogenes. The assay is described as above. The following applies: Table I. Here is the method: as §1
Another assay relates to Pseudomonas aeruginosa. Described as above. The following applies: Table I. Here is the method: as §1
Another assay relates to Serratia marcescens. The description is as above. The following applies: Table I. The method, then:
as §1

For the next assay, the system named is Fusarium oxysporum. The assay is described as above. The following applies: Table I. Here is the method: as §1, with “For fungi: Sabouraud nutrient liquid containing glucose, […] digested casein and water. The experiments” for “The experiments”
Another assay concerns Candida albicans. The description is as above. The following applies: Table I. The method, then: as §1, with “For fungi: Sabouraud nutrient liquid containing glucose, […] digested casein and water. The experiments” for “The experiments”
A further assay relates to Candida parapsilosis. The description is as above. The following applies: Table I; for MIC: Lodderomyces parapsilosis. The method, then:
as §1, with “For fungi: Sabouraud nutrient liquid containing glucose, […] digested casein and water. The experiments” for “The experiments”

Another assay deals with Aspergillus flavus. The description is as above. The following applies: Table I. The method, then:
as §1, with “For fungi: Sabouraud nutrient liquid containing glucose, […] digested casein and water. The experiments” for “The experiments”

The test system of assay [1] is all tested bacteria and fungi. As to the kind of experiment: MIC values of active ingredients on 9 different microbe strains, summary in words. The following applies: summary of Table I. The method, then:
For fungi: Sabouraud nutrient liquid containing glucose, tripsine digested casein and water.
The experiments are carried out in an ambience free of germs.
The following compounds were tested: azithromycin, clarithromycin, erythromycin, miconazole, primicin-sulphate. Test organisms: Bacteria: Escherichia coli, Pseudomonas aeruginosa, Serratia marcescens, Staphylococcus aureus, Streprococcus pyogenes. Fungi: Aspergillus flavus, Fusarium oxysporum, Candida albicans, Candida parapsilosus. Nutrient media: Soye bouillon, Sabouraud nutrient liquor. Solvents: methanol a.r. and for primicin-sulphate the mixture of butanol:ethanol:water in the ratio of 1:1:2. Negative control: nutrient medium exempt of test organisms. Positive control: nutrient medium and 10 μL of the inoculum.
Following preparation of the inoculum and incubation the MIC values were determined according to the above.

In the case of `CC[C@H]1OC(=O)[C@H](C)[C@@H](O[C@H]2C[C@@](C)(OC)[C@@H](O)[C@H](C)O2)[C@H](C)[C@@H](O[C@@H]2O[C@H](C)C[C@H](N(C)C)[C@H]2O)[C@](C)(O)C[C@@H](C)C(=O)[C@H](C)[C@@H](O)[C@]1(C)O` [erythromycin], the MIC against Escherichia coli was 100 µg/mL (≈ 136 µM); against Staphylococcus aureus it was 1 µg/mL (≈ 1.36 µM); against Streptococcus pyogenes it was 3 µg/mL (≈ 4.09 µM); in the assay with Pseudomonas aeruginosa it was 90 µg/mL (≈ 123 µM); against Serratia marcescens it was 300 µg/mL (≈ 409 µM); in the assay with Fusarium oxysporum, more than 500 µg/mL. The MIC in the assay with Candida albicans was more than 500 µg/mL; against Candida parapsilosis, 500 µg/mL (≈ 681 µM); with Aspergillus flavus, more than 500 µg/mL.

Consider `CC[C@H]1OC(=O)[C@H](C)[C@@H](O[C@H]2C[C@@](C)(OC)[C@@H](O)[C@H](C)O2)[C@H](C)[C@@H](O[C@@H]2O[C@H](C)C[C@H](N(C)C)[C@H]2O)[C@](C)(OC)C[C@@H](C)C(=O)[C@H](C)[C@@H](O)[C@]1(C)O` [clarithromycin], for which the MIC was 95 µg/mL (≈ 127 µM) against Escherichia coli; 0.2 µg/mL (≈ 0.267 µM) against Staphylococcus aureus; 1 µg/mL (≈ 1.34 µM) with Streptococcus pyogenes; 80 µg/mL (≈ 107 µM) with Pseudomonas aeruginosa; 100 µg/mL (≈ 134 µM) in the assay with Serratia marcescens; more than 100 µg/mL against Fusarium oxysporum. Further, the MIC against Candida albicans, against Candida parapsilosis and in the assay with Aspergillus flavus was more than 100 µg/mL each time.

As for `Clc1ccc(COC(Cn2ccnc2)c2ccc(Cl)cc2Cl)c(Cl)c1` (stereo not drawn) [miconazole], the “activity in the MIC test, in words” value in assay [1] was “inhibits all tested fungi and cocci”. Besides, the MIC with Escherichia coli was more than 500 µg/mL; against Staphylococcus aureus, 3 µg/mL (≈ 7.21 µM); against Streptococcus pyogenes, 0.5 µg/mL (≈ 1.2 µM); with Pseudomonas aeruginosa it was more than 500 µg/mL; with Serratia marcescens, more than 500 µg/mL; in the assay with Fusarium oxysporum, more than 8 µg/mL. Besides, the MIC against Candida albicans is 0.5 µg/mL (≈ 1.2 µM); against Candida parapsilosis, 0.2 µg/mL (≈ 0.481 µM); against Aspergillus flavus it was 2 µg/mL (≈ 4.81 µM).

primycin: the “activity in the MIC test, in words” value in assay [1] is “acceptably active against Candida type fungi but not against all tested bacteria”. For the same molecule, the MIC values is 100< μg/ml in the assay on Escherichia coli; 0.2 µg/mL in the assay with Staphylococcus aureus; 0.5 µg/mL in the assay with Streptococcus pyogenes; 100< μg/ml in the assay with Pseudomonas aeruginosa; 100< μg/ml against Serratia marcescens; 100< μg/ml against Fusarium oxysporum. Further, the MIC values is 18 µg/mL against Candida albicans, 5.0 µg/mL in the assay on Candida parapsilosis and 100< μg/ml against Aspergillus flavus.

`CC[C@H]1OC(=O)[C@H](C)[C@@H](O[C@H]2C[C@@](C)(OC)[C@@H](O)[C@H](C)O2)[C@H](C)[C@@H](O[C@@H]2O[C@H](C)C[C@H](N(C)C)[C@H]2O)[C@](C)(O)C[C@@H](C)CN(C)[C@H](C)[C@@H](O)[C@]1(C)O` [azithromycin]: the “activity in the MIC test, in words” value in [1] is given as “effective on all tested bacteria”. Moreover, the MIC with Escherichia coli was 6 µg/mL (≈ 8.01 µM); against Staphylococcus aureus, 2 µg/mL (≈ 2.67 µM); in the assay with Streptococcus pyogenes, 3 µg/mL (≈ 4.01 µM); with Pseudomonas aeruginosa, 65 µg/mL (≈ 86.8 µM); against Serratia marcescens, 8 µg/mL (≈ 10.7 µM); in the assay on Fusarium oxysporum, more than 500 µg/mL. In addition, the results for the MIC with Candida albicans, with Candida parapsilosis and against Aspergillus flavus were more than 500 µg/mL, 500 µg/mL (≈ 668 µM) and more than 500 µg/mL, respectively.
